Experimental data from patent publication US8748445B2, “Methods for treating glioma” (The UAB Research Foundation, priority 2004, dated 2014).

Experiments:
D-54MG glioma cells = assay: BrdU incorporation, immunocytochemical studies; type: cell-based, human; details: DAPI co-staining (FIG. 4B)
Method: BrdU incorporation was measured using an ELISA-based assay. D-54MG cells were grown in the presence or absence of inhibitors for 24 hours and pulsed for 2 hours with BrdU. The cells were cultured for an additional 48 hours and the amount of incorporated BrdU was measured using alkaline phosphatase conjugated to anti-BrdU antibodies. […] The inhibition of DNA synthesis was also seen in immunocytochemical studies.

U87-MG = assay: intracranial U87-MG luciferase xenograft, bioluminescence imaging; type: in vivo, CB-17 nude mice; details: 8 mg twice daily for 3 weeks, then 1 dose per day (FIG. 7B)
Method: These U87-MG cells were similarly implanted intracranially as described above, but this time into CB-17 nude mice. After 7 days, animals were randomized into […]. The control group received an intraperitoneal injection of 1 ml dose of saline twice daily. The two test groups received an 8 mg dose of sulfasalazine (in 1 ml saline) twice daily for 3 weeks, followed by 1 dose per day of 8 mg sulfasalazine thereafter. Animals were imaged for tumor size, typically once per week, using a bioluminescence imaging system (IVIS system; Xenogen). Light emission from the tumor regions (in relative photons/second) were quantified using Living Image, version 2.20.1, software provided by Xenogen and plotted as a function of time.

glioma cells [1] = assay: cell death by flow cytometry using the Live/Dead assay kit; type: cell-based, human; details: 1 mM, 5 d incubation (FIG. 5E)
Method: Because an accumulation of ROS can lead to apoptotic cell death, the ability of system Xc inhibitors to induce apoptosis in glioma cells was examined. […] Often apoptosis is dependent on caspase activities, so it was determined whether the system Xc inhibitors induce activated caspase-3, which is the convergent enzyme in the caspase-dependent signaling cascade. […] With 1 mM sulfasalazine, 90% of cells died over the 5 d incubation (FIG. 5E).

cultured glioma cells = assay: glutathione levels in cultured glioma cells (monochlorobimane assay); type: cell-based, human
Method: (§1) The control group and treatment group animals were those described in FIG. 7A above. For these experiments, four mice (two control and two treatment) were sacrificed at 44 days after tumor induction, and brains were rapidly frozen and cryosectioned to […], thawed on ice, and then incubated with 100 μM monochlorobimane for 10 min. Fluorescence intensities were examined using a quantitative fluorescence imaging system comparing side-by-side slices from control group and treatment group animals. In these experiments, 10 slices were examined per animal. […] After treatment with 8 mg sulfasalazine 2 times per day, glutathione levels decreased approximately 30% (from 100+/−5.6 to 71.7+/−7.5 fluorescence units; p 0.01; t test) in tumors as compared with control animals (receiving saline alone). In parallel studies, the same assay was used on cultured glioma cells to validate these readouts. A 30% decrease in glutathione levels correlates with the glutathione depletion achieved with 70 μM sulfasalazine administered for 24 h to cultured cells; the maximal decrease achieved with 250 μM sulfasalazine in cultured U87-MG cells was 68% (data not shown).

glioma xenograft tumors = assay: tumor size by hematoxylin-eosin staining of brain sections; type: in vivo, mice; details: 8 mg in 1 ml saline twice per day; 30 days after tumor induction (FIGS. 7C, 7D)
Method: To validate that these experiments represent, at least qualitatively, changes in tumor size, two animals each from the control and treatment groups were sacrificed at 30 days after tumor induction. Histological sections were obtained and traditional hematoxylin-eosin (H&E) staining were performed. FIGS. 7C and 7D show the results for the control group (saline treatment only) and the treatment group (8 mg sulfasalazine in 1 ml saline, twice per day).

D54-MG glioma cells [2] = assay: histological markers of cell death and proliferation in tumor sections; type: in vivo, CB-17 scid mice
Source text: To further examine effects of sulfasalazine in vivo at the cellular level, the tumor sections were examined with commonly used histological markers for cell death, including ApopTag/methyl green (FIGS. 8A and 8B) and terminal deoxynucleotidyl transferase-mediated biotinylated UTP nick end labeling (TUNEL) (FIGS. 8C and 8D), and proliferation (Ki-67) (FIGS. 8E and 8F). Multiple fields from several serial sections from two control group and two treatment group animals (see description above regarding FIG. 7A) were examined. […] Indeed, necrosis is a hallmark of grade IV gliomas and a necessary feature for their histopathological grading as such. At a higher resolution (40×), significant cell death was observed as evident from TUNEL (FIG. 8C) and caspase-3 staining (data not shown). In these figures, TUNEL staining is indicated by a lighter green color against a background of DAPI staining.

[3] = tested on: glioma cell lines (D-54MG, U-87MG, U-251MG and STTG1) and a primary glioma culture (GBM62); assay: growth curves of glioma cells over 5 days; type: cell-based, human; details: 5 days; 0.1 and 0.25 mM (S)-4-CPG, 0.25 and 0.5 mM sulfasalazine; all glioma cell lines and GBM62 (FIGS. 3A, 3B)
Method: To examine whether the depletion of glutathione via inhibition of cystine uptake by system Xc affects the growth of glioma cells, growth curves for 4 glioma cell lines (D-54MG, U-87MG, U-251MG and STTG1) and a primary glioma culture (GBM62) were established.
In the presence of 0.25 mM (S)-4-CPG, growth of D-54MG cells indeed recovered by the addition of fourfold excess of cystine (FIG. 3E), but not with glutamate (FIG. 3D), the second substrate for system Xc.

glioma cells [4] = assay: total intracellular glutathione content in glioma cells; type: cell-based, human
Method: (§2) To determine if limiting cystine uptake via system Xc reduces the total intracellular glutathione content (GSH and glutathione disulfide), intracellular glutathione concentrations were determined in the presence and absence of sulfasalazine.

cortical astrocytes = assay: intracellular glutathione in cortical astrocytes; type: cell-based; details: sulfasalazine 50-500 μM; compared to glioma cells (FIG. 2E)
Method: as §2

D54-MG glioma cells [5] = assay: glutathione levels in tumor sections (monochlorobimane fluorescence); type: in vivo, CB-17 scid mice; details: 8 mg 2 times per day, 44 days after tumor induction
Method: as §1

[6] = tested on: cortical neuronal cultures; assay: survival of cortical neuronal cultures; type: cell-based; details: (S)-4-CPG 0.25 mM and 0.5 mM (FIG. 3C); sulfasalazine data not shown
[7] = tested on: primary astrocyte cultures; assay: growth of primary astrocyte cultures; type: cell-based; details: (S)-4-CPG 0.25 mM and 0.5 mM (FIG. 3C); sulfasalazine data not shown

## O=C(O)c1cc(/N=N/c2ccc(S(=O)(=O)Nc3ccccn3)cc2)ccc1O [sulfasalazine]
D-54MG glioma cells
  incorporation of BrdU, immunocytochemistry: virtually abolished incorporation of BrdU
U87-MG
  tumor growth by bioluminescence imaging: reduce tumor growth significantly
Glioma cells [1]
  cells died: 90%
Cultured glioma cells; 70 μM for 24 h
  decrease in glutathione levels in cultured cells: 30%
Cultured glioma cells; 250 μM, cultured U87-MG cells, data not shown
  maximal decrease in glutathione levels: 68%
Glioma xenograft tumors
  tumor size versus control group, H&E staining: significantly smaller
D54-MG glioma cells [2]; sulfasalazine-treated animals of FIG. 7A (FIG. 8B)
  tumor necrosis (ApopTag): almost no evidence for necrosis
D54-MG glioma cells [2]; sulfasalazine-treated tumor sections, similar to control, no significant difference
  Ki-67 index: approximately 15
D54-MG glioma cells [2]; sulfasalazine-treated versus control (FIG. 8D), not statistically significant
  TUNEL labeling in tumor sections: reduced TUNEL
D54-MG glioma cells [2]; sulfasalazine-treated versus control, data not shown
  caspase-3 labeling in tumor sections: reduced
[3]
  growth of glioma cells: dose-dependent growth inhibitions
Glioma cells [4]; 0.25 mM, glioma cells D-54MG, U-87MG, U-251MG and primary glioma culture GBM64 (FIG. 2F)
  intracellular glutathione concentration: depleted intracellular glutathione concentration
Glioma cells [4]; D-54MG glioma cells, sulfasalazine 50-500 μM, time and dose-dependent, after 24 h (FIG. 2D)
  intracellular glutathione concentration: almost complete glutathione depletion
Cortical astrocytes
  intracellular glutathione concentration in astrocytes: a smaller effect
D54-MG glioma cells [5]; control 100+/−5.6
  glutathione levels in tumors: 71.7+/−7.5 fluorescence units
D54-MG glioma cells [5]; versus saline control
  decrease of glutathione levels in tumors: approximately 30%
[6]
  survival/growth of cortical neuronal cultures: Neither (S)-4-CPG (FIG. 3C) nor sulfasalazine (data not shown) affected
[7]
  growth of primary astrocyte cultures: Neither (S)-4-CPG (FIG. 3C) nor sulfasalazine (data not shown) affected
